Results taken from ChEMBL document CHEMBL1201862, “PubChem BioAssay data set” (2004).
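Results reflect a 48-hour exposure of cells in 96-well plates to compound at five concentrations. The concentration for 50% growth inhibition is given as GI50.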 Active and inactive are the calls of the source. Cut-off read from the data, not from the text of the source: active = GI50 up to about 1.1 µM and inactive = higher.

Assays:
Experiment in all cases: NCI-60 cell line screen, 48 h
HOP-62 = tested on: HOP-62
UACC-62 = tested on: UACC-62
EKVX = tested on: EKVX
OVCAR-3 = tested on: OVCAR-3
U-251 = tested on: U-251
NCI-H226 = tested on: NCI-H226
SK-OV-3 = tested on: SK-OV-3
Malme-3M = tested on: Malme-3M
MOLT-4 = tested on: MOLT-4
A498 = tested on: A498
NCI-H460 = tested on: NCI-H460
OVCAR-5 = tested on: OVCAR-5
K562 = tested on: K562
COLO 205 = tested on: COLO 205
786-0 = tested on: 786-0
UO-31 = tested on: UO-31
HT-29 = tested on: HT-29
UACC-257 = tested on: UACC-257
PC-3 = tested on: PC-3
ACHN = tested on: ACHN

Measured: GI50

Cc1ccnc(NC(=S)Nc2ccccc2Cl)c1
inactive: HOP-62 34.7 µM | UACC-62 63.1 µM | EKVX 40.1 µM | OVCAR-3 > 100 µM | U-251 > 100 µM | NCI-H226 63.5 µM | SK-OV-3 83.8 µM | Malme-3M 53.5 µM | MOLT-4 > 100 µM | A498 > 100 µM | NCI-H460 > 100 µM | OVCAR-5 > 100 µM | K562 > 100 µM | COLO 205 > 100 µM | 786-0 > 100 µM | UO-31 > 100 µM | HT-29 > 100 µM | UACC-257 > 100 µM | PC-3 > 100 µM

CN(C)/N=C1\CC(c2ccccc2)C(C#N)(C#N)C1(C#N)C#N (stereo not drawn)
inactive: HOP-62 24.4 µM | UACC-62 16 µM | EKVX 41.6 µM | U-251 35.3 µM | ACHN 18.9 µM | NCI-H226 23.8 µM | SK-OV-3 50.1 µM | Malme-3M 16.9 µM | MOLT-4 4.53 µM | A498 18.2 µM | OVCAR-5 25.6 µM | K562 3.2 µM | COLO 205 5.56 µM | 786-0 17.7 µM | UO-31 18.6 µM | HT-29 26.1 µM | UACC-257 18.6 µM | PC-3 19 µM

CC(CC(C)[C@H]1CCC2[C@H]3C(CC[C@@]21C)[C@@]1(C)CCC(O)C[C@H]1C[C@@H]3O)C(=O)O (stereo partly drawn)
inactive: HOP-62 > 100 µM | UACC-62 > 100 µM | EKVX > 100 µM | U-251 > 100 µM | ACHN > 100 µM | NCI-H226 > 100 µM | Malme-3M > 100 µM | MOLT-4 > 100 µM | A498 > 100 µM | NCI-H460 > 100 µM | OVCAR-5 > 100 µM | K562 26.2 µM | COLO 205 > 100 µM | 786-0 > 100 µM | UO-31 66.2 µM | HT-29 > 100 µM | UACC-257 > 100 µM | PC-3 > 100 µM

CC1=C(C#N)c2nc3ccccc3n2C(=O)C1(C)CCO (stereo not drawn)
inactive: HOP-62 > 100 µM | UACC-62 > 100 µM | EKVX > 100 µM | OVCAR-3 > 100 µM | U-251 > 100 µM | ACHN > 100 µM | NCI-H226 > 100 µM | SK-OV-3 > 100 µM | Malme-3M > 100 µM | A498 > 100 µM | NCI-H460 > 100 µM | OVCAR-5 > 100 µM | K562 > 100 µM | COLO 205 > 100 µM | 786-0 > 100 µM | UO-31 > 100 µM | HT-29 > 100 µM | UACC-257 > 100 µM | PC-3 > 100 µM

O=C(Nc1ccccc1)N1CC(CN2CCN(c3ccccc3)CC2)OC1=O (stereo not drawn)
inactive: HOP-62 > 100 µM | UACC-62 > 100 µM | EKVX > 100 µM | U-251 > 100 µM | ACHN > 100 µM | NCI-H226 > 100 µM | SK-OV-3 > 100 µM | Malme-3M > 100 µM | MOLT-4 > 100 µM | A498 > 100 µM | NCI-H460 > 100 µM | OVCAR-5 > 100 µM | K562 > 100 µM | COLO 205 > 100 µM | 786-0 > 100 µM | UO-31 > 100 µM | HT-29 > 100 µM | UACC-257 > 100 µM | PC-3 > 100 µM

O=C(O)CNCCc1ccccc1
inactive: HOP-62 > 100 µM | UACC-62 > 100 µM | EKVX > 100 µM | OVCAR-3 > 100 µM | U-251 > 100 µM | ACHN > 100 µM | NCI-H226 > 100 µM | SK-OV-3 > 100 µM | Malme-3M > 100 µM | A498 > 100 µM | NCI-H460 > 100 µM | OVCAR-5 > 100 µM | K562 > 100 µM | COLO 205 > 100 µM | 786-0 > 100 µM | UO-31 > 100 µM | HT-29 > 100 µM | PC-3 > 100 µM

CC[C@@]12CCC(=S)N(CCSc3ccccc3)[C@@H]1c1c(n(S(=O)(=O)c3ccc(OC)cc3)c3ccccc13)CC2
inactive: HOP-62 > 100 µM | UACC-62 > 100 µM | EKVX > 100 µM | OVCAR-3 > 100 µM | U-251 > 100 µM | NCI-H226 68.1 µM | SK-OV-3 > 100 µM | Malme-3M > 100 µM | MOLT-4 > 100 µM | A498 > 100 µM | NCI-H460 > 100 µM | OVCAR-5 > 100 µM | K562 > 100 µM | COLO 205 > 100 µM | 786-0 63.1 µM | UO-31 > 100 µM | HT-29 > 100 µM | UACC-257 > 100 µM | PC-3 > 100 µM

CCOC(=O)C(Cl)(NC(=O)OCc1ccccc1)C(F)(F)F (stereo not drawn)
inactive: HOP-62 > 100 µM | EKVX > 100 µM | OVCAR-3 > 100 µM | U-251 > 100 µM | ACHN > 100 µM | NCI-H226 > 100 µM | SK-OV-3 > 100 µM | Malme-3M > 100 µM | MOLT-4 > 100 µM | A498 > 100 µM | OVCAR-5 > 100 µM | K562 > 100 µM | COLO 205 > 100 µM | 786-0 > 100 µM | UO-31 > 100 µM | HT-29 > 100 µM | UACC-257 > 100 µM | PC-3 > 100 µM
